# Measurements from patent US10138247B2, “7-(morpholin-4-yl)pyrazole[1,5-A]pyrimidine derivatives as PI3 kinase inhibitors” (priority 2015, dated 2018).
# Where two headings read alike, the source gives them in different places.
# Columns and labels:
# PI3Kα = biological target: T1, PI3Kα (Homo sapiens, UniProt P42336); assay: PI3K kinases inhibition in vitro (ADP-Glo), PI3Kα; format: biochemical
# T1 construct: purchased Carna Biosciences
# Procedure: (§1) Tested compounds were dissolved in 100% DMSO, and thus obtained solutions were serially diluted in 1× reaction buffer. Recombinant kinase was diluted in a reaction mixture comprising 5× reaction buffer, substrate (1 mM sodium diacetate 4,5-bisphosphate phosphatydylinositol (PIP2) solution in 40 mM Tris buffer), and water. To the wells in a 96-wells plate, 5 μl of compounds solutions and 15 μl of the kinase solution in the reaction mixture were added. To initiate interaction of tested chemical compounds with the enzyme, the plate was incubated for 10 minutes at suitable temperature in a plate thermostat with orbital shaking at 600 rpm. Negative control wells contained all above reagents except tested compound and kinase, and positive control wells contained all above reagents except tested compounds. Enzymatic reaction was initiated by adding 5 μl of 150 μM ATP solution, subsequently the plate was incubated for 1 hour at 25° C. or 30° C. (depending on PI3K isoform tested) in plate thermostat with orbital shaking of the plate contents at 600 rpm. Reaction conditions are presented below in Table 12.
# (§2) Detection of ADP formed in the enzymatic reaction was then performed using ADP-Glo Kinase Assay (Promega). To the wells of a 96-well plate 25 μl of ADP-Glo Reagent were added, and the plate was incubated for 40 minutes at 25° C. in a plate thermostat with orbital shaking at 600 rpm. Then to the wells of 96-well plate 50 μl of Kinase Detection Reagent were added and the plate was incubated for 40 minutes at 25° C. in a plate thermostat with orbital shaking at 600 rpm. After incubation time, luminescence intensity in a well was measured by Victor Light luminometer (Perkin Elmer, Inc.).
# (§3) IC50 values were determined on the basis of luminescence intensity measurements in wells containing tested compounds at different concentrations and in control wells. These values were calculated with Graph Pad 5.03 software by fitting the curve using non-linear regression. Each compound was tested at least in quadruplicates (4 wells) on two 96-well plates using at least 4 wells of each of the controls.
# PI3Kδ = biological target: T2, PI3Kδ (Homo sapiens, UniProt O00329); assay: PI3K kinases inhibition in vitro (ADP-Glo), PI3Kδ; format: biochemical
# T2 construct: purchased Merck Millipore
# T2 sequence (O00329 whole entry): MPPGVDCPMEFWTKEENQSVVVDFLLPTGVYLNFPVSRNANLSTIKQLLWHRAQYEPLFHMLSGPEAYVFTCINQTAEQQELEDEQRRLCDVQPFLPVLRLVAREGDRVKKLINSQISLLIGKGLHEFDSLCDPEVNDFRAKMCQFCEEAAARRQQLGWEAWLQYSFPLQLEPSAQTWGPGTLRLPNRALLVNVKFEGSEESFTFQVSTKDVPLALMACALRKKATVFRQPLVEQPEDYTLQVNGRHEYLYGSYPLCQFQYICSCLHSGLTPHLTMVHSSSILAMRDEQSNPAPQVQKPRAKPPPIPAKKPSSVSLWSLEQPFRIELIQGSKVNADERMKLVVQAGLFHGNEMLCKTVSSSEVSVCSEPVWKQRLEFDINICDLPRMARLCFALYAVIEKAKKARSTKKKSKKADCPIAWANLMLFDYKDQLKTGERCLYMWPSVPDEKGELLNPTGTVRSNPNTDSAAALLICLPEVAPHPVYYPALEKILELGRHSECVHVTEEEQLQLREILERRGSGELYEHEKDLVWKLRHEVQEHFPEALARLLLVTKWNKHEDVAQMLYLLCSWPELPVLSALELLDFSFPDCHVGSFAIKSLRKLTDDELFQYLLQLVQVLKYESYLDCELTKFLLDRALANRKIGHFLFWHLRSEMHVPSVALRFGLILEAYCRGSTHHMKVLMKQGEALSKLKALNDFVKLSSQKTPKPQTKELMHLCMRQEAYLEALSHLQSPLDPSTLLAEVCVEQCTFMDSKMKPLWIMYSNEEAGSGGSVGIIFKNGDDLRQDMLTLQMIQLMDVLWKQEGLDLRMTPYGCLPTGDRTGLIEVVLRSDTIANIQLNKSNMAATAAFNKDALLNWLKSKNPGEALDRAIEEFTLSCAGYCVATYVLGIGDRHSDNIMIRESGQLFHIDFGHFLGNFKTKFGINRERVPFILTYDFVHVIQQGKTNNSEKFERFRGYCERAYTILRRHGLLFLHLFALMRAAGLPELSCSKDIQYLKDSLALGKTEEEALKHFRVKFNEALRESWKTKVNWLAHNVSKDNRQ
# T2 sequence (P27986 whole entry, further chain): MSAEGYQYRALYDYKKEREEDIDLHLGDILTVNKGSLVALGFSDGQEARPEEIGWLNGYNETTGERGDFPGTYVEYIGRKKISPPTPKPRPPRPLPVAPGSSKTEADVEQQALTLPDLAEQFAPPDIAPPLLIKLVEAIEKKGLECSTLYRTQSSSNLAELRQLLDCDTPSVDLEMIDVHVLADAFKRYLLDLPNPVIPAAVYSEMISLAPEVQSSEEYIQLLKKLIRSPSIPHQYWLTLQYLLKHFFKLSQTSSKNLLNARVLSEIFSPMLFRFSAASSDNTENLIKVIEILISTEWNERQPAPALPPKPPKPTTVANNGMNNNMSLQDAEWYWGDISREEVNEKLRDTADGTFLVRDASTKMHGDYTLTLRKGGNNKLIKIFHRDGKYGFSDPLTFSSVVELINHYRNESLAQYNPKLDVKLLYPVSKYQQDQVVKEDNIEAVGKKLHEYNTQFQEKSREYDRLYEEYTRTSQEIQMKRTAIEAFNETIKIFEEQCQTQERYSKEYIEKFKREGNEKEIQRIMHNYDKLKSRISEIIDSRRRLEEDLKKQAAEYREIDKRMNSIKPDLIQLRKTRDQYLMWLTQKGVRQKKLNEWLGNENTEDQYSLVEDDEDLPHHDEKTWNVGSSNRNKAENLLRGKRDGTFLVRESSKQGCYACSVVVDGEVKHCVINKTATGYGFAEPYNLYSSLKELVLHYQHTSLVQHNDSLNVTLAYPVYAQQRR
# Procedure: as §1, §2, §3
# [1] = averaged, recombinant kinase, 25° C., 1 h, PIP2 30 μM, read-out: PI3Kδ IC50
# T1 sequence (P42336 whole entry): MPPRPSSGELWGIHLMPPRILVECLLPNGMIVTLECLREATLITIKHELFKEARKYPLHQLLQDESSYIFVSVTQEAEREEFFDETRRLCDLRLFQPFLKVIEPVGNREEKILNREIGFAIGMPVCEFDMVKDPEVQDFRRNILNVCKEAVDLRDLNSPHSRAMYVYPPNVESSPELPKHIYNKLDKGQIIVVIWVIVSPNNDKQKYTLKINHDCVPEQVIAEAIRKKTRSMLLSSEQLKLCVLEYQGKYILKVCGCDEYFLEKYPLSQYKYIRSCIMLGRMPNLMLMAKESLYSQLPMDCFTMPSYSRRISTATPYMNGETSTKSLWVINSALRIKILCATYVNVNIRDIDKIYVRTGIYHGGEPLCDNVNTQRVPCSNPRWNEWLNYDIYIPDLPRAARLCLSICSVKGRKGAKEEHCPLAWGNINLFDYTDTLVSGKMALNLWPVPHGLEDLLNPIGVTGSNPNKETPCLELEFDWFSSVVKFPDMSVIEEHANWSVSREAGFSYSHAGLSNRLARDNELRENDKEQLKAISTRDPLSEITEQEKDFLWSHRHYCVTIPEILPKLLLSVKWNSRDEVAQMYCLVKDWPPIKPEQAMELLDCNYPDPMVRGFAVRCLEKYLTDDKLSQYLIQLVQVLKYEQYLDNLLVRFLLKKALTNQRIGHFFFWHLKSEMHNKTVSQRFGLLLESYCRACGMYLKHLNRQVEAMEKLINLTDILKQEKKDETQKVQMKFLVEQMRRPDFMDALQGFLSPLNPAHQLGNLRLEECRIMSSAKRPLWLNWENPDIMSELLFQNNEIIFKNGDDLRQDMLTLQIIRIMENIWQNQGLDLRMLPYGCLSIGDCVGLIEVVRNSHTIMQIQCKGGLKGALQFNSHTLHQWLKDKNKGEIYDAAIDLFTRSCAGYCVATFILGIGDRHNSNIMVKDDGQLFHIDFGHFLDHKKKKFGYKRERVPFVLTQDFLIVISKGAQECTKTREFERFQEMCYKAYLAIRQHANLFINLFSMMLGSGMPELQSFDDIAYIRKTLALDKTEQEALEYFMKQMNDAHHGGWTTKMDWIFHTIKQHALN
# T1 sequence (P27986 whole entry partner): as the sequence (P27986 whole entry, further chain) above
SMILES,IC50 (PI3Kα),IC50 (PI3Kδ),IC50 (PI3Kδ; [1])
"CS(=O)(=O)N1CCN(Cc2cc3nc(-c4cccc5[nH]ccc45)cc(N4CCOCC4)n3n2)CC1 [Example 2, 5-(1H-indol-4-yl)-2-((4-(methyl-sulphonyl)piperazin-1-yl)methyl)-7-(morpholin-4-yl)pyrazolo[1,5-a]-pyrimidine]",> 1000 nM,100 to 1000 nM,–
"CN1CCN(C2CCN(Cc3cc4nc(-c5cccc6[nH]ccc56)cc(N5CCOCC5)n4n3)CC2)CC1 [Example 3, 5-(1H-indol-4-yl)-2-((4-(4-methylpiperazin-1-yl)piperidin-1-yl)methyl)-7-(morpholin-4-yl)pyrazolo[1,5-a] pyrimidine]",> 1000 nM,< 100 nM,–
"COc1ccc(N2CCN(Cc3cc4nc(-c5cccc6[nH]ccc56)cc(N5CCOCC5)n4n3)CC2)cc1 [Example 6, 5-(1H-indol-4-yl)-2-((4-(4-methoxyphenyl)piperazin-1-yl)-methyl)-7-(morpholin-4-yl)-pyrazolo[1,5-a]pyrimidine]",> 1000 nM,100 to 1000 nM,–
"CC(C)(C)N1CCN(Cc2cc3nc(-c4cccc5[nH]ncc45)cc(N4CCOCC4)n3n2)CC1 [Example 12, 2-((4-tert-butylpiperazin-1-yl)methyl)-5-(1H-indazol-4-yl)-7-(morpholin-4-yl)pyrazolo[1,5-a]-pyrimidine]",> 1000 nM,–,< 100 nM
"CN1CCN(C2CCN(Cc3cc4nc(-c5c(F)ccc6[nH]ccc56)cc(N5CCOCC5)n4n3)CC2)CC1 [Example 14, 5-(5-fluoro-1H-indol-4-yl)-2-((4-(4-methylpiperazin-1-yl)piperidin-1-yl)methyl)-7-(morpholin-4-yl)-pyrazolo[1,5-a]pyrimidine]",> 1000 nM,–,< 100 nM
"CC(C)(O)C1CCN(Cc2cc3nc(-c4cccc5[nH]ncc45)cc(N4CCOCC4)n3n2)CC1 [Example 15, 2-((4-(2-hydroxypropan-2-yl)-piperidin-1-yl)methyl)-5-(1H-indazol-4-yl)-7-(morpholin-4-yl)-pyrazolo[1,5-a]pyrimidine]",> 1000 nM,–,100 to 1000 nM
"CC(C)(O)C1CCN(Cc2cc3nc(-c4cnc(N)nc4)cc(N4CCOCC4)n3n2)CC1 [Example 18, 5-(2-aminopyrimidin-5-yl)-2-((4-(2-hydroxypropan-2-yl)piperidin-1-yl)methyl)-7-(morpholin-4-yl)-pyrazolo[1,5-a]pyrimidine]",> 1000 nM,–,100 to 1000 nM
"CN1CCN(Cc2cc3nc(-c4cccc5[nH]ccc45)cc(N4CCOCC4)n3n2)CC1 [Example 21, 5-(1H-indol-4-yl)-2-((4-methyl-piperazin-1-yl)methyl)-7-(morpholin-4-yl)pyrazolo[1,5-a]-pyrimidine]",> 1000 nM,100 to 1000 nM,–
"O=S1(=O)CCN(Cc2cc3nc(-c4cccc5[nH]ccc45)cc(N4CCOCC4)n3n2)CC1 [Example 23, 2-((1,1-dioxothio-morpholin-1-yl)-methyl)-5-(1H-indol-4-yl)-7-(morpholin-4-yl)pyrazolo[1,5-a]-pyrimidine]",> 1000 nM,100 to 1000 nM,–
"COC(=O)C1CCN(Cc2cc3nc(-c4cccc5[nH]ccc45)cc(N4CCOCC4)n3n2)CC1 [Example 24, Methyl 1-((5-(1H-indol-4-yl)-7-(morpholin-4-yl)pyrazolo[1,5-a]-pyrimidin-2-yl)methyl)piperidin-4-carboxylate]",> 1000 nM,100 to 1000 nM,–
"c1cc(-c2cc(N3CCOCC3)n3nc(CN4CCN(CC5CC5)CC4)cc3n2)c2cc[nH]c2c1 [Example 26, 2-((4-(cyclopropylmethyl)piperazin-1-yl)methyl)-5-(1H-indol-4-yl)-7-(morpholin-4-yl)pyrazolo[1,5-a]-pyrimidine]",> 1000 nM,< 100 nM,–
"c1cc(-c2cc(N3CCOCC3)n3nc(CN4CCN(C5CCCC5)CC4)cc3n2)c2cc[nH]c2c1 [Example 27, 2-((4-cyclopentylpiperazin-1-yl)-methyl)-5-(1H-indol-4-yl)-7-(morpholin-4-yl)pyrazolo[1,5-a]-pyrimidine]",> 1000 nM,< 100 nM,–
c1cc(-c2cc(N3CCOCC3)n3nc(CN4CCN(C5COC5)CC4)cc3n2)c2cc[nH]c2c1 [Example 34],> 1000 nM,< 100 nM,–
"c1cc(-c2cc(N3CCOCC3)n3nc(CN4C[C@@H]5C[C@H]4CN5C4COC4)cc3n2)c2cc[nH]c2c1 [Example 36, 5-(1H-indol-4-yl)-2-(((1S, 4S)-2-(oxetan-3-yl)-2,5-diazabicyclo [2.2.1]hept-2-yl)methyl)-7-(morpholin-4-yl)pyrazolo[1,5-a]-pyrimidine]",> 1000 nM,< 100 nM,–
O=C(Nc1ccccc1)NC1CCN(Cc2cc3nc(-c4cccc5[nH]ccc45)cc(N4CCOCC4)n3n2)CC1 [Example 37],–,100 to 1000 nM,–
CCNC(=O)NC1CCN(Cc2cc3nc(-c4cccc5[nH]ccc45)cc(N4CCOCC4)n3n2)CC1 [Example 38],> 1000 nM,100 to 1000 nM,–
"CCc1nc2ccccc2n1-c1cc(N2CCOCC2)n2nc(CN3CCN(S(C)(=O)=O)CC3)cc2n1 [Example 42, 5-(2-ethylbenzimidazol-1-yl)-2-((4-(methylsulphonyl)piperazin-1-yl)methyl)-7-(morpholin-4-yl)-pyrazolo[1,5-a]pyrimidine]",> 1000 nM,–,100 to 1000 nM
"CCc1nc2ccccc2n1-c1cc(N2CCOCC2)n2nc(CN3CCC(N(C)C)CC3)cc2n1 [Example 43, 5-(2-ethylbenzimidazo-1-yl)-2-((4-(dimethylamino)piperidin-1-yl)-methyl)-7-(morpholin-4-yl)-pyrazolo[1,5-a]pyrimidine]",> 1000 nM,–,100 to 1000 nM
"CCc1nc2ccccc2n1-c1cc(N2CCOCC2)n2nc(CN3CCN(C(C)(C)C)CC3)cc2n1 [Example 47, 5-(2-ethylbenzimidazol-1-yl)-2-((4-tert-butylpiperazin-1-yl)methyl)-7-(morpholin-4-yl)pyrazolo[1,5-a]-pyrimidine]",> 1000 nM,–,< 100 nM
"Cc1nc2ccccc2n1-c1cc(N2CCOCC2)n2nc(CN3CCN(C(C)(C)C)CC3)cc2n1 [Example 48, 5-(2-methylbenzimidazol-1-yl)-2-((4-tert-butylopiperazin-1-yl)-methyl)-7-(morpholin-4-yl)-pyrazolo[1,5-a]pyrimidine]",> 1000 nM,–,100 to 1000 nM
"Cc1nc2ccccc2n1-c1cc(N2CCOCC2)n2nc(CN3CCC(C(C)(C)O)CC3)cc2n1 [Example 49, 5-(2-methylbenzimidazol-1-yl)-2-((4-(2-hydroxypropan-2-yl)-piperidin-1-yl)methyl)-7-(morpholin-4-yl)pyrazolo[1,5-a]-pyrimidine]",> 1000 nM,–,100 to 1000 nM
"CC(C)c1nc2ccccc2n1-c1cc(N2CCOCC2)n2nc(CN3CCN(C(C)(C)C)CC3)cc2n1 [Example 52, 5-(2-iso-propylbenzimidazol-1-yl)-2-((4-tert-butylpiperazin-1-yl)-methyl)-7-(morpholin-4-yl)-pyrazolo[1,5-a]pyrimidine]",> 1000 nM,–,100 to 1000 nM
"CC(C)c1nc2ccccc2n1-c1cc(N2CCOCC2)n2nc(CN3CCC(C(C)(C)O)CC3)cc2n1 [Example 53, 5-(2-iso-propylbenzimidazol-1-yl)-2-((4-(2-hydroxypropan-2-yl)-piperidin-1-yl)methyl)-7-(morpholin-4-yl)pyrazolo[1,5-a]-pyrimidine]",> 1000 nM,–,100 to 1000 nM
"CC(C)(C)N1CCN(Cc2cc3nc(-n4c(C5CC5)nc5ccccc54)cc(N4CCOCC4)n3n2)CC1 [Example 54, 5-(2-cyclopropylbenzimidazol-1-yl)-2-((4-tert-butylpiperazin-1-yl)-methyl)-7-(morpholin-4-yl)-pyrazolo[1,5-a]pyrimidine]",> 1000 nM,–,100 to 1000 nM
"CC(C)(O)C1CCN(Cc2cc3nc(-n4c(C5CC5)nc5ccccc54)cc(N4CCOCC4)n3n2)CC1 [Example 55, 5-(2-cyclopropylbenzimidazol-1-yl)-2-((4-(2-hydroxypropan-2-yl)-piperidin-1-yl)methyl)-7-(morpholin-4-yl)pyrazolo[1,5-a]-pyrimidine]",> 1000 nM,–,100 to 1000 nM
"C[C@@H]1CN(C2CN(Cc3cc4nc(-n5c(C(F)F)nc6ccccc65)cc(N5CCOCC5)n4n3)C2)C[C@H](C)O1 [Example 65, 5-(2-(difluoromethyl)benzimidazol-1-yl)-2-((3-((2R,6S)-2,6-dimethylmorpholin-4-yl)azetidin-1-yl)methyl)-7-(morpholin-4-yl)-pyrazolo[1,5-a]pyrimidine]",–,–,< 100 nM
"COC1CN(C2CN(Cc3cc4nc(-n5c(C(F)F)nc6ccccc65)cc(N5CCOCC5)n4n3)C2)C1 [Example 67, 5-(2-(difluoromethyl)benzimidazol-1-yl)-2-((3-(3-methoxyazetidin-1-yl)azetidin-1-yl)methyl)-7-(morpholin-4-yl)pyrazolo[1,5-a]-pyrimidine]",–,–,< 100 nM
